US20030199516A1, “Methods of treating infection by drug resistant bacteria” (Genesoft, Inc., priority 2001, published 2003)

Legend:
S. aureus ATCC 27660 = assay: NCCLS broth microdilution MIC; assay type: cell-based, Staphylococcus aureus; settings: Col. A = S. aureus ATCC 27660 (MRSA)
Description: (§1) In vitro antibacterial activity data were collected for the following Gram-positive bacteria: Staphylococcus aureus (ATCC 27660, ATCC 33591 and ATCC 43300, all methicillin resistant strains (MRSA's)); Streptococcus pneumoniae (ATCC 51422, a penicillin resistant strain (PRSP)), Enterococcus faecium (ATCC 51559, and/or a vancomycin resistant strain (VRE)). Additionally, antifungal activity data were collected for Candida albicans (ATCC 38247). Minimal inhibition concentrations (MIC's) were determined using the National Committee for Clinical Laboratory Standards (NCCLS) broth microdilution assay in microtiter plates, as set forth in: (1) the guidelines of the National Committee for Clinical Laboratory Standards (NCCLS) Document M7-A4 (NCCLS, 1997); (2) the guidelines of the National Committee for Clinical Laboratory Standards (NCCLS) Document M11-A4 (NCCLS, 1997); and (3) the guidelines and reference method of the National Committee for Clinical Laboratory Standards (NCCLS) Document M27-T (NCCLS, 1995). For antifungal essays, the method recommended in Murray, PR., 1995 Manual of Clinical Microbiology (ASM Press, Washington, D.C.), was employed.

S. aureus ATCC 33591 = assay: NCCLS broth microdilution MIC; assay type: cell-based, Staphylococcus aureus; settings: Col. B = S. aureus ATCC 33591 (MRSA)
Description: as §1

[1] = tested on: Candida albicans ATCC 38247; assay: Antifungal MIC; assay type: cell-based; settings: Col. F = C. albicans ATCC 38247
Description: as §1

[2] = biological target: target sequence AAAAAGCAAAAA (351 bp fragment, Plasmid A); assay: Quantitative DNase I footprint titration; assay type: binding; settings: 351 bp A, 22° C., pH 7.0, read-out: Dissociation Constant Kd
Description: (§2) Compounds (1) through (20) according to this invention were screened for their ability to bind to specified DNA target sequences, using DNase I footprinting. Generally, the procedure described in Dervan, WO 98/50582 (1998), was followed.
(§3) Three double stranded circular plasmids A, B, and C were used to prepare double stranded DNA-binding probes containing the target sequences for the DNase I footprint titration experiments. Plasmids A, B, and C had nucleotide sequences given by SEQ ID NO. I, SEQ ID NO. II, and SEQ ID NO. III, respectively.
(§4) The 3′-P32 end-labeled EcoRI/PvuII fragments from each plasmid were prepared by digesting the plasmids with EcoRI and PvuII with simultaneous fill-in using Sequenase v. 2.0, [alpha-P32]-deoxyadenosine-5′-triphosphate, and [alpha-P32]-thymidine-5′-triphosphate, and isolating the cloned fragments by nondenaturing gel electrophoresis. A and G sequencing reactions were carried out as described (See Maxam and Gilbert, Methods Enzymol., 1980, 65, 499-560; Iverson and Dervan, Methods Enzymol., 1987, 15, 7823-7830; Sambrook et al., 1989, Molecular Cloning, 2nd ed., Cold Spring Harbor Laboratory Press: Cold Spring Harbor, N.Y.) Standard methods were used for all DNA manipulations (Sambrook et al., ibid.) The cut sites for EcoRI and PvuII are indicated by bars in the respective maps of Plasmids A, B, and C in FIGS. 5, 6, and 7.
(§5) The 351 base pair dsDNA restriction fragment (SEQ ID NO. IV) of Plasmid A contained the target sequences AAAAAGCAAAAA, AAAAAGACAAAAA, and AAAAAGTACAAAAA. The 310 base pair dsDNA restriction fragment (SEQ ID NO. V) of Plasmid B contained the target sequences AGTACT, AATACT, and ATTACT. The 352 base pair dsDNA restriction fragment (SEQ ID NO. VI) of Plasmid C contained the target sequences TGACAATTAAT, GACAATTAATCA, AATTAATCAT, ACAATTA, and ACAATTAAT. These fragments were used for quantitative DNase I footprinting experiments. Compounds used in the method of this invention bind to at least one of the target sites with a equal to or less than 100 nM, preferably equal to or less than 50 nM, and more preferably equal to or less than 20 nM. The target sequences were selected for the identity with, or similarity to, promoter sites for bacterial genes.
(§6) Quantitative DNase I footprint titration experiments were carried out as described previously (Dervan, WO 98/50582, 1998) with the following changes. All reactions were carried out in a total volume of 400 μL, with compound stock solution or water added to 15,000 cpm radiolabeled restriction fragment affording final solution conditions of 10 mM Tris HCl, 10 mM KCl, 10 mM MgCl2, 5 mM CaCl2, pH 7.0 and 0.01 nM, 0.1 nM, 1.0 nM, 10.0 nM compound or no compound for reference lanes. The compounds were allowed to equilbrate at 22° C. for 16 h. Footprinting reactions were initiated with addition of 10 μL of a DNase I stock solution (at the appropriate concentration to give ˜50% intact DNA) containing 1 mM DTT and allowed to proceed for 7 min at 22° C. The reactions were stopped, ethanol precipitated, resuspended in loading buffer, heat denatured, and placed on ice as described previously (Dervan WO 98/50582, 1998). The reaction products were separated on a precast 8% polyacrylamide denaturing sequencing Castaway gel with 32 preformed wells from Stratagene in 1×TBE at 2000 V. Gels were dried according to the manufacturer and exposed to a storage phosphor screen (Molecular Dynamics). Quantitation and data analysis were carried out as described in Dervan, WO 98/50582, 1998.

[3] = biological target: target sequence TGACAATTAAT (352 bp fragment, Plasmid C); assay: Quantitative DNase I footprint titration; assay type: binding; settings: 352 bp C, 22° C., pH 7.0, read-out: Dissociation Constant Kd
Description: as §2, §3, §4, §5, §6

[4] = biological target: target sequence AAAAAGACAAAAA (351 bp fragment, Plasmid A); assay: Quantitative DNase I footprint titration; assay type: binding; settings: 351 bp A, 22° C., pH 7.0, read-out: Dissociation Constant Kd
Description: as §2, §3, §4, §5, §6

[5] = tested on: Enterococcus faecium ATCC 51559; assay: NCCLS broth microdilution MIC; assay type: cell-based; settings: Col. D = E. faecium ATCC 51559 (VRE)
Description: as §1

[6] = tested on: Streptococcus pneumoniae ATCC 51422; assay: NCCLS broth microdilution MIC; assay type: cell-based; settings: Col. E = S. pneumoniae ATCC 51422 (PRSP)
Description: as §1

Compound: CN(C)CCCNC(=O)CCNC(=O)c1cc(NC(=O)c2cc(NC(=O)CCNC(=O)c3cc(NC(=O)c4cc(NC(=O)c5cc(Br)c(Br)s5)cn4C)cn3C)cn2C)cn1C [Compound 1]
- Minimum Inhibitory Concentration (MIC) (S. aureus ATCC 27660): ++ (++ = MIC ≦ 1)
- Minimum Inhibitory Concentration (MIC) (S. aureus ATCC 33591): + (+ = MIC ≦ 2)
- Minimum Inhibitory Concentration (MIC) [1]: >32 µg/mL
- Kd [2]: 10 pM
- Kd [3]: 2000 pM
- Kd [4]: 10 pM
- Minimum Inhibitory Concentration (MIC) [5]: − (− = MIC > 2)
- Minimum Inhibitory Concentration (MIC) [6]: ++ (++ = MIC ≦ 1)
